Reference: ChEMBL document CHEMBL4842340, “Development of Cagrilintide, a Long-Acting Amylin Analogue” (J Med Chem, 2021)
Converted amounts (≈) assume the structure as drawn. *1 amine or outer side, *2 acyl side, *3 side chain or, on linkers, in order; H or OH if unused. Where a SMILES comes first, the peptide text is derived from it. Bridges are numbered along the chain shown (N, C = ends). The star is where a group is joined. C20 diacid = O=C(O)CCCCCCCCCCCCCCCCCCC(=O)*; γGlu = O=C(O)[C@H](CCC(=O)[*:2])N[*:1]

Columns and labels:
[1] = Agonist activity at human AMY3R (CT+RAMP3) expressed in Hollex1 cells incubated for 3 hrs by luminescence assay; assay type: cell-based; settings: Hollex1, 3 h
[2] = Agonist activity at human calcitonin receptor expressed in BHK570 cells assessed as increase in intracellular cAMP concentration incubated for 3 hrs in absence of albumin by CRE luciferase reporter gene assay; assay type: cell-based; settings: BHK570, 3 h
Homo sapiens [3] = organism: Homo sapiens; experiment: Ratio of EC50 for human calcitonin receptor expressed in BHK570 cells to EC50 for human AMY3R (CT+RAMP3) expressed in Hollex1 cells; assay type: cell-based
[4] = Agonist activity at rat AMY3R (CT+RAMP3) expressed in tk-ts13 cells assessed as increase in intracellular cAMP level incuabted for 25 mins by CRE luciferase reporter gene assay; assay type: cell-based; settings: tk-ts13, 25 min
[5] = Agonist activity at rat calcitonin receptor expressed in BHK-13 cells assessed as increase in intracellular cAMP concentration incubated for 25 mins by CRE luciferase reporter gene assay; assay type: cell-based; settings: BHK-13, 25 min
[6] = Displacement of [125I]-amylin from human AMY3R (CTR+RAMP3) expressed in BHK-13 cells measured after 120 mins by scintillation proximity assay; assay type: cell-based
[7] = Displacement of [125I]-calcitonin from human calcitonin receptor expressed in tk-ts 13 cells measured after 120 mins by scintillation proximity assay; assay type: cell-based; settings: tk-ts13
Homo sapiens [8] = organism: Homo sapiens; experiment: Ratio of IC50 for displacement of [125I]-calcitonin from human calcitonin receptor expressed in tk-ts 13 cells to IC50 for displacement of [125I]-amylin from human AMY3R (CTR+RAMP3) expressed in BHK-13 cells; assay type: cell-based
[9] = Displacement of [125I]-amylin from rat AMY3R (CTR+RAMP3) expressed in BHK-13 cells measured after 120 mins by scintillation proximity assay; assay type: cell-based
[10] = Displacement of [125I]-calcitonin from rat calcitonin receptor expressed in tk-ts 13 cells measured after 120 mins by scintillation proximity assay; assay type: cell-based; settings: tk-ts13
Rattus norvegicus [11] = organism: Rattus norvegicus; experiment: Ratio of IC50 for displacement of [125I]-calcitonin from rat calcitonin receptor expressed in tk-ts 13 cells to IC50 for displacement of [125I]-amylin from rat AMY3R (CTR+RAMP3) expressed in BHK-13 cells; assay type: cell-based
[12] = Solubility of the compound in lactate at pH 3 by UPLC analysis; assay type: physicochemical; settings: lactate buffer
[13] = Solubility of the compound in lactate at pH 4 by UPLC analysis; assay type: physicochemical; settings: lactate buffer
[14] = Solubility of the compound in lactate at pH 5 by UPLC analysis; assay type: physicochemical; settings: lactate buffer
[15] = Solubility of the compound in bis-tris propane at pH 6 by UPLC analysis; assay type: physicochemical; settings: bis-tris propane buffer
[16] = Solubility of the compound in bis-tris propane at pH 6.5 by UPLC analysis; assay type: physicochemical; settings: bis-tris propane buffer
[17] = Solubility of the compound in bis-tris propane at pH 7 by UPLC analysis; assay type: physicochemical; settings: bis-tris propane buffer
[18] = Solubility of the compound in bis-tris propane at pH 7.5 by UPLC analysis; assay type: physicochemical; settings: bis-tris propane buffer
[19] = Solubility of the compound in bis-tris propane at pH 8 by UPLC analysis; assay type: physicochemical; settings: bis-tris propane buffer
Insulin (Homo sapiens) [20] = target: Insulin (Homo sapiens) (UniProt P01308); experiment: Effect on insulin (unknown origin) amyloid fibril formation assessed as lag time in glycyl-glycine buffer at pH 4 measured after 45 hrs by thioflavin-T fluorescence assay
Insulin (Homo sapiens) [21] = target: Insulin (Homo sapiens) (UniProt P01308); experiment: Effect on insulin (unknown origin) amyloid fibril formation assessed as peptide recovery in glycyl-glycine buffer at pH 4 measured after 45 hrs by thioflavin-T fluorescence assay relative to control; set-up: concentration or dose not given beside the values
Insulin (Homo sapiens) [22] = target: Insulin (Homo sapiens) (UniProt P01308); experiment: Effect on insulin (unknown origin) amyloid fibril formation assessed as lag time in HEPES buffer at pH 7.5 measured after 45 hrs by thioflavin-T fluorescence assay
Insulin (Homo sapiens) [23] = target: Insulin (Homo sapiens) (UniProt P01308); experiment: Effect on insulin (unknown origin) amyloid fibril formation assessed as peptide recovery in HEPES buffer at pH 7.5 measured after 45 hrs by thioflavin-T fluorescence assay relative to control
Rattus norvegicus [24] = experiment: Reduction in food intake in Sprague-Dawley rat at 3 nmol/kg, sc administered as single dose measured upto 24 hrs relative to control; assay type: functional; set-up: scale not given: the % may be the effect or the level left; settings: time hrs <=24
Rattus norvegicus [25] = experiment: Reduction in food intake in Sprague-Dawley rat at 3 nmol/kg, sc administered as single dose measured after 24 to 48 hrs relative to control; assay type: functional; set-up: scale not given: the % may be the effect or the level left; settings: time 24-48 hrs

Insulin (Homo sapiens), sequence (P01308 whole entry): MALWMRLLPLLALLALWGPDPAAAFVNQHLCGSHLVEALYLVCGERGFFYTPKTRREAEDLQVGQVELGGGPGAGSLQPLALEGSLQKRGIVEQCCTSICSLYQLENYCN

SMILES: CC[C@H](C)[C@H](NC(=O)[C@@H]1CCCN1C(=O)CNC(=O)[C@H](Cc1ccccc1)NC(=O)[C@H](CC(N)=O)NC(=O)[C@H](CC(N)=O)NC(=O)[C@H](CO)NC(=O)[C@H](CO)NC(=O)[C@H](Cc1c[nH]cn1)NC(=O)[C@H](Cc1cnc[nH]1)NC(=O)[C@H](CC(C)C)NC(=O)[C@H](Cc1ccccc1)NC(=O)[C@H](CCC(=O)O)NC(=O)[C@H](C)NC(=O)[C@H](CC(C)C)NC(=O)[C@H](CCCNC(=N)N)NC(=O)[C@H](CCC(N)=O)NC(=O)[C@@H](NC(=O)[C@H](C)NC(=O)[C@@H]1CSSC[C@H](NC(=O)[C@H](CCCCN)NC(=O)CC[C@H](NC(=O)CCCCCCCCCCCCCCCCCCC(=O)O)C(=O)O)C(=O)N[C@@H](CC(N)=O)C(=O)N[C@@H]([C@@H](C)O)C(=O)N[C@@H](C)C(=O)N[C@@H]([C@@H](C)O)C(=O)N1)[C@@H](C)O)C(=O)N[C@@H](CC(C)C)C(=O)N1CCC[C@H]1C(=O)N1CCC[C@H]1C(=O)N[C@H](C(=O)N[C@@H](CC(N)=O)C(=O)N[C@H](C(=O)NCC(=O)N[C@@H](CO)C(=O)N[C@@H](CC(N)=O)C(=O)N[C@H](C(=O)N1CCC[C@H]1C(N)=O)[C@@H](C)O)C(C)C)[C@@H](C)O ({C20 diacid-γGlu}-KCNTATCATQRLAEFLHHSSNNFGPILPPTNVGSNTP-NH2; disulfide 2-7)
- EC50 [1]: 0.061 nM
- EC50 [2]: 0.052 nM
- Ratio EC50 (Homo sapiens [3]): 1
- EC50 [4]: 0.158 nM
- EC50 [5]: 0.076 nM
- IC50 [6]: 0.186 nM
- IC50 [7]: 0.115 nM
- Ratio IC50 (Homo sapiens [8]): 1
- IC50 [9]: 0.027 nM
- IC50 [10]: 0.018 nM
- Ratio IC50 (Rattus norvegicus [11]): 1
- solubility [12]: 200 µM (≈ 878 µg/mL)
- solubility [13]: 200 µM (≈ 878 µg/mL)
- solubility [14]: 200 µM (≈ 878 µg/mL)
- solubility [15]: 200 µM (≈ 878 µg/mL)
- solubility [16]: 200 µM (≈ 878 µg/mL)
- solubility [17]: 200 µM (≈ 878 µg/mL)
- solubility [18]: 200 µM (≈ 878 µg/mL)
- solubility [19]: 200 µM (≈ 878 µg/mL)
- TIME (Insulin (Homo sapiens) [20]): 45 h
- Activity (Insulin (Homo sapiens) [21]): 92%
- TIME (Insulin (Homo sapiens) [22]): 11 h
- Activity (Insulin (Homo sapiens) [23]): 19%
- Activity (Rattus norvegicus [24]): 62%
- Activity (Rattus norvegicus [25]): 74%
